{"source": "patent US20090238852A1", "about": "“METHODS FOR CONTROLLING INTRACELLULAR CALCIUM LEVELS ASSOCIATED WITH AN ISCHEMIC EVENT” (University of Utah Research Foundation, priority 2008, published 2009)", "system": "rabbit ventricular myocytes", "test": "Intracellular calcium [Ca^++]i in ventricular myocytes during paced metabolic ischemia (PMI), Fluo-3 flow cytometry", "assay_type": "cell-based", "description": "Consequently, it prevents intracellular sodium overload and subsequent reverse mode operation of the sodium-calcium exchanger. The effect of 2-O, 3-O desulfated heparin on accumulation of intracellular Ca^++ during ischemia was studied in an adult rabbit ventricular myocyte model previously reported (Boston D R, et al. J Pharmacol Exp Ther 285:716-723, 1998; Li F, et al. J Mol Cell Cardiol 33:2145-2155, 2001). Isolated cardiomyocytes have been validated as reliable models of ischemia (Diaz, R J, Wilson G J. Cardiovasc Res 70:286-296, 2006).\nTo produce the model, hearts are removed from albino rabbits (2-3 kg) anesthetized with sodium pentobarbital (65 mg/kg IV). The heart was immediately attached to an aorta cannula. Continuous perfusion of the coronary arteries at 37° C. by a pump (Masterflex, Cole-Parmer Instrument Co., Chicago, Ill.) was initiated at a perfusion pressure of 60 mm Hg. The heart was first perfused with nominally Ca^++-free modified Krebs-Ringer bicarbonate buffered solution (MKRBB, pH 7.40, containing in mmol/L: NaCl 126, KCl 4.4, […], MgCl2 1.0, HEPES 24, probenecid 0.5 and glucose 5) for 10 min, immediately followed by 15-25 min of recirculating perfusion with the same solutions containing 0.3 mg/ml collagenase (Type 2, Worthington Biochemical, Freehold, N.J.), 0.4 mg/mL hyaluronidase (Type-S, Sigma-Aldrich, St. Louis, Mo.) and 50 μmol/L CaCl2. The heart was then detached from the cannula, and the left ventricle was minced and transferred to a 50 mL conical tube with the same solution containing 0.24 mg/mL collagenase, 0.02 mg/mL trypsin and 50 μmol/L Ca^++ for a second digestion. The minced tissue was continuously agitated by gassing the solution with 5% CO2 and 95% O2 to help release isolated myocytes. The resulting supernatant was transferred to another conical tube with the same volume of the same solution containing 0.03 mg/mL of trypsin inhibitor (Sigma-Aldrich). The cell suspension was centrifuged at 5×g for 5 minutes. The supernatant was discarded and cells were resuspended in solution with a higher Ca^++ concentration (200 μmol/L) and incubated in a CO2 incubator (5% CO2, 28° C.) to settle down cells by gravity for 10 min. The same procedure was repeated twice to bring up the Ca^++ concentration slowly (500, then 1000 μmol/L). Calcium step-up solutions were made from MKRBB with 2% albumin, 50 μmol/L CaCl2 mixed with the appropriate amount of minimum essential medium (MEM, Gibco Laboratories, Grand Island, N.Y.). At the end of isolation, cells were filtered with a […] to avoid cell clumping during flow cytometry studies. The yield of rod-shaped viable myocytes averaged 50%. Cells were used for experiments within 4 hours after dissociation.\nIn these studies, intracellular calcium concentration [Ca^++]i was measured by flow cytometry. Measurement of isolated mouse and rabbit ventricular myocyte [Ca^2+]i and [Na^+]i by flow cytometry has been described (Zhang et al., J. Cardiovasc. Pharmacol. 51: 443-449 (2008); Li et al., J. Mol. Cell. Cardiol. 33: 2145-2155 (2001)). [Ca^++]i was measured with the Ca^++ sensitive fluorescent probe, Fluo 3-AM (Molecular Probes, Eugene, Oreg.), using a FACScan (Becton-Dickinson, MA). The cells were exposed to 4 μmol/L Fluo-3 AM for 30 min at 37° C. The cells were then separated into aliquots. After 40 min of wash, the cells were exposed to paced metabolic ischemia (MI) for 45 min at 37° C. Metabolic ischemia was accomplished by incubating cells in a glucose-free MKRBB solution (pH 7.40) containing 2 mmol/L sodium cyanide (NaCN) to impair mitochondrial and glycolytic generation of ATP. To reproduce the situation in the beating ischemic heart, during the period of metabolic ischemia, myocytes were placed in a 5-well chamber with equal volumes of myocyte suspensions from the same heart dissociation placed in each well. The chamber was water bathed to maintain temperature at 37° C. and bubbled with 5% CO2 in air to keep myocytes in suspension. […]", "data": [{"substance": "2-O, 3-O desulfated heparin [ODSH]", "values": [{"measurement": "effect on myocyte [Ca^2+]i during simulated ischemia", "setting": "45 min P-MI, ODSH 1, 10, 100 μg/mL, FIG. 3", "result": "dose-dependent reduction of [Ca^2+]I"}, {"measurement": "further reduction in [Ca^2+]i in the presence of KBR", "setting": "ODSH 100 μg/mL with KBR 10 μmol/L, 45 min simulated ischemia, FIG. 4", "result": "no significant further reduction in [Ca^2+]i"}, {"measurement": "additional effect on Ca^2+ loading during P-MI in the presence of ranolazine", "setting": "ODSH 100 μg/ml with ranolazine 10 μM, FIG. 8", "result": "no additional effect on Ca^2+ loading"}, {"measurement": "[Ca^++]i", "setting": "PMI 45 min + ODSH 1 μg/mL, n = 7, PMI alone 1133.6 ± 78.4, Hepes 241.9 ± 23.0", "result": "1013.8 ± 69.2", "unit": "nM"}, {"measurement": "[Ca^++]i", "setting": "PMI 45 min + ODSH 10 μg/mL, n = 7, PMI alone 1133.6 ± 78.4", "result": "739.0 ± 63.8", "unit": "nM"}, {"measurement": "[Ca^++]i", "setting": "PMI 45 min + ODSH 100 μg/mL, n = 7, PMI alone 1133.6 ± 78.4", "result": "684.3 ± 66.9", "unit": "nM"}, {"measurement": "[Ca^++]i", "setting": "Table 6: PMI + ODSH 100 μg/mL, n = 7, PMI alone 985.5 ± 42.7, Hepes 269.6 ± 8.3", "result": "688.6 ± 33.4", "unit": "nM"}, {"measurement": "effect on [Ca^2+]i during P-MI", "setting": "each alone: ODSH 100 μg/ml, ranolazine 10 μM, FIG. 8, n = 7", "result": "reduced [Ca^2+]i to a similar degree"}]}]}
